Measured values reported in publication PMC10397409, “The action of physiological and synthetic steroids on the calcium channel CatSper in human sperm” (Frontiers in Cell and Developmental Biology, 2023).
Read-outs that look alike come from different tables or passages of the source.

Tests used:
Format in all cases: cell-based
[1] = biological target: T1, CatSper (Homo sapiens, UniProt Q7RTX7+Q86XQ3+Q8NEC5+Q96P56); test: Steroid-induced increase in [Ca2+]i in human sperm (Fluo-4 HTS assay, screen 1 activators); settings: for Emax: read-out: Max amplitude (%) (± SD)
T1 construct: Motile spermatozoa were selected by a ‘swim-up’ procedure; endogenous in cells; host or cells: motile human spermatozoa (swim-up) from healthy donors
Method: (§1) Briefly, motile spermatozoa were selected by swim-up and labeled with the fluorescent calcium indicator Fluo-4 a.m. to image changes in [Ca^2+]i. After centrifugation to remove excess dye, Fluo-4 AM loaded cells were distributed in a 384-wells plate to obtain ∼125,000 cells/well. After measuring basal fluorescence, a first injection of compounds was performed in order to evaluate their effect on [Ca^2+]i alone. This first screen is therefore considered as a screen to search for ‘activators’. Fluorescence was recorded for 12 min during which sperm cells were continuously exposed to compounds. P4 or PGE1 were then added in the same wells to evaluate whether the tested compounds can reduce the ligand-induced activation of CatSper. This second screen was therefore considered to be a search for CatSper ‘inhibitors’.
Human semen samples were collected from healthy donors by masturbation after a recommended sexual abstinence period of minimum 2 days. Semen samples were allowed to liquefy at 37°C for 15–30 min. […] Motile sperm were allowed to swim at 37°C for 1 hour. The supernatant was collected in 15 mL Falcon tubes and washed twice by centrifugation at 700 x g for 20 min. Sperm were supplemented with 3 mg/mL HSA.
20 μL of cells (corresponding to ∼125,000 cells) loaded with Fluo-4 a.m. were dispensed in a 384-wells plate (Corning, NY, United States) to allow fluorescence measurement. The dye was excited at 480 nm, and emission was recorded at 530 nm. The change in [Ca^2+]i was assessed simultaneously in all wells using a Functional Drug Screening System (FDSS/μCELL) (Hamamatsu Phototonics K.K., Yokohama, Japan) at 37°C. Basal fluorescence was first measured for 30 s. […] P4 and PGE1 were tested at a near-saturating concentration in the HTS in order to evaluate a potential additive or synergistic effect induced by the compounds. […] For alkalization-induced Ca^2+ measurement, NH4Cl was used as a positive control at a final concentration of 10 mM. […] The Prestwick library was tested in technical duplicate. Ca^2+ response curves were normalized using the following formula F−F0/F0×100 , where F 0 is the average of the basal fluorescence prior to the addition of the compound of interest and F corresponds to the fluorescence value at each time point. The ∆F/F0 of the vehicle control (DMSO) was subtracted from all the other values to adjust for dilution and pipetting artifacts. The values of all compounds were normalized to their respective controls.
Data are shown as mean ± standard deviation (SD) with “n” referring to the number of independent experiments performed using sperm samples from ≥3 different donors. Statistical analysis and fitting of dose-response relations were performed using GraphPad Prism 8.1.1 (Prism, La Jolla, United States). To generate sigmoidal curves, the concentrations were converted to their respective log values, and the data were normalized using the following formula: 100⋅x/Fmax , where Fmax is the maximum value of the positive control. A four-parameter Hill equation with a variable Hill coefficient was fitted to generate the EC02, EC50, and IC50. Statistical significance between control and treated conditions was evaluated using a one-way analysis of variance (ANOVA), followed by Dunnett´s test. A p-value <0.05 was considered significant.

[2] = biological target: T1, CatSper; test: Inhibition of P4-induced Ca2+ influx in human sperm (screen 2 inhibitors)
Method: as §1
(§2) Human semen samples were collected from healthy donors by masturbation after a recommended sexual abstinence period of minimum 2 days. Semen samples were allowed to liquefy at 37°C for 15–30 min. Motile spermatozoa were selected by a ‘swim-up’ procedure as previously described ([Strünker et al., 2011]). Briefly, 1 mL of semen was deposited in a 45°-inclined 50 mL Falcon tube with 4 mL of Human Tubular Fluid (HTF) medium containing: 93.8 mM NaCl, 4.7 mM KCl, 0.2 mM MgSO4, 0.37 mM KH2PO4, 2.04 mM CaCl2, 20.98 mM HEPES, 2.78 mM glucose, 21.4 mM Na-lactate, 4 mM NaHCO3, 0.33 mM Na-pyruvate, and the pH was adjusted to 7.35. Motile sperm were allowed to swim at 37°C for 1 hour. The supernatant was collected in 15 mL Falcon tubes and washed twice by centrifugation at 700 x g for 20 min. Sperm were supplemented with 3 mg/mL HSA. Written informed consent was obtained from all donors prior to donation and approved by the Cantonal Ethics Committee of the State of Geneva (CCER #14-147).
(§3) Cells were loaded with the fluorescent Ca^2+ indicator Fluo-4 AM at a final concentration of 2.5 µM for 30 min at 37°C. Excess dye was washed via centrifugation at 700 x g for 20 min and sperm were resuspended in HTF medium to obtain a final concentration of 6.25 x 10^6 cells/mL. 20 μL of cells (corresponding to ∼125,000 cells) loaded with Fluo-4 a.m. were dispensed in a 384-wells plate (Corning, NY, United States) to allow fluorescence measurement. The dye was excited at 480 nm, and emission was recorded at 530 nm. The change in [Ca^2+]i was assessed simultaneously in all wells using a Functional Drug Screening System (FDSS/μCELL) (Hamamatsu Phototonics K.K., Yokohama, Japan) at 37°C. Basal fluorescence was first measured for 30 s. […] P4 and PGE1 were tested at a near-saturating concentration in the HTS in order to evaluate a potential additive or synergistic effect induced by the compounds. Non-specific CatSper inhibitor MDL 12330A was used as a negative control at final concentration of 20 µM while DMSO was used as a vehicle control. For alkalization-induced Ca^2+ measurement, NH4Cl was used as a positive control at a final concentration of 10 mM. Fluorescence was recorded for a total of 16.5 min: 30 s before injection, 12 min after the first injection of the tested compounds, and 4 min after the second injection of either P4 or PGE1. The Prestwick library was tested in technical duplicate. Ca^2+ response curves were normalized using the following formula F−F0/F0×100 , where F 0 is the average of the basal fluorescence prior to the addition of the compound of interest and F corresponds to the fluorescence value at each time point. The ∆F/F0 of the vehicle control (DMSO) was subtracted from all the other values to adjust for dilution and pipetting artifacts. The values of all compounds were normalized to their respective controls.

[3] = biological target: T1, CatSper; test: Inhibition of PGE1-induced Ca2+ influx in human sperm (screen 2 inhibitors)
Method: as §1, §2, §3

[4] = EC50 (±SD), increase in [Ca2+]i, dose-response 90 µM to 0.3 nM
[5] = Mean EC50 µM (±SD), pooled from 3 independent experiments
[6] = maximal amplitude of steroid-induced [Ca2+]i increase, relative to P4, 3 independent experiments
[7] = Mean IC50 (P4) µM (±SD), P4-induced response, pooled from 3 independent experiments
[8] = pooled from 3 independent experiments, read-out: Mean EC50 µM (±SD)
[9] = P4-induced response, pooled from 3 independent experiments, read-out: Mean IC50 (P4) µM (±SD)
[10] = PGE1-induced response, pooled from 3 independent experiments, read-out: Mean IC50 (PGE1) µM (±SD)

| Compound | Emax [1, 6] [%] | Max P4 inhibition (%) (± SD) ([2]; 3 independent experiments) | EC50 [1, 8] [µM] | IC50 [2, 9] [µM] | IC50 [3, 10] [µM] | further results |
| --- | --- | --- | --- | --- | --- | --- |
| CC(=O)[C@H]1CC[C@H]2[C@@H]3C=CC4=CC(=O)CC[C@@]4(C)[C@@H]3CC[C@]12C [Dydrogesterone] | 84 | 94 (±4) % |  |  |  | EC02 compared with reported maximum concentration in blood serum [1]: EC02 below the reported maximum concentration found in blood serum; effective concentrations as low as (dose-dependent increase in [Ca2+]i) [1]: 10 nM; EC50 [1, 4]: 0.13 µM; EC50 [1, 5]: 0.104 µM; IC50 ([2]; IC50 (±SD), inhibition of P4-induced Ca2+ response, dose-response 90 µM to 0.3 nM): 0.245 µM; IC50 [2, 7]: 0.24 µM; IC50 [3]: 44.8 µM |
| C#C[C@]1(O)CC[C@H]2[C@@H]3CCC4=CCCC[C@@H]4[C@H]3CC[C@@]21C [lynestrenol] | 59 | 47 (±27) % | 17.3 | 9.36 | 11.7 |  |
| C[C@]12CCC(=O)C=C1C=C[C@@H]1[C@@H]2CC[C@@]2(C)[C@H]1CC[C@@]2(O)CCC(=O)[O-].[K+] [canrenoic acid potassium salt] |  | 27 (±10) % | 23.4 | 23.2 | 16.3 | Max amplitude (%) (± SD) [1, 6]: 34 (±2) % |
| C#C[C@]1(OC(C)=O)CC[C@H]2[C@@H]3CCC4=C[C@@H](OC(C)=O)CC[C@@H]4[C@H]3CC[C@@]21C [ethynodiol diacetate] | 35 | 22 (±14) % | 17.7 | 13.9 | 12.2 |  |
| C[C@]12C/C(=C/O)C(=O)C[C@@H]1CC[C@@H]1[C@@H]2CC[C@@]2(C)[C@H]1CC[C@]2(C)O [oxymetholone] |  | 62 (±9) % |  |  |  | EC50 [1, 5]: 1.3 µM; Emax [1]: 82%; IC50 [2, 7]: 4.74 µM; IC50 [3]: 11.8 µM |
| CC(=O)O[C@]1(C(C)=O)CC[C@H]2[C@@H]3C=C(Cl)C4=CC(=O)CC[C@]4(C)[C@H]3CC[C@@]21C [chlormadinone acetate] | 4 | 0 (±15) % | 34.7 |  | 38.4 |  |
| C[C@]12CC[C@@H](O)C[C@@H]1CC[C@@H]1[C@@H]2CC[C@]2(C)C(=O)CC[C@@H]12 [androsterone] |  | 61 (±6) % |  |  |  | EC50 [1, 5]: 1.02 µM; Emax [1]: 70%; IC50 [2, 7]: 2.11 µM; IC50 [3]: 5.38 µM |
| C[C@H](CCC(=O)O)[C@H]1CC[C@H]2[C@@H]3[C@@H](O)C[C@@H]4C[C@H](O)CC[C@]4(C)[C@H]3CC[C@]12C [urosiol] |  | 13 (±3) % | 7.89 |  | 12.2 | Max amplitude (%) (± SD) [1, 6]: 25 (±8) % |
| CC(C)(C)NC(=O)[C@H]1CC[C@H]2[C@@H]3CC[C@H]4NC(=O)C=C[C@]4(C)[C@H]3CC[C@]12C [finasteride] | 39 | 18 (±6) % | 0.78 |  | > 100 |  |
| C[C@]12CCC(=O)C=C1CC[C@@H]1[C@@H]2C(=O)C[C@]2(C)C(=O)CC[C@@H]12 [adrenosterone] |  | 24 (±3) % | 14.5 | 30.8 |  | Max amplitude (%) (± SD) [1, 6]: 26 (±2) % |
| norgestrel-(-)-d |  | 3 (±5) % |  | 75.6 |  | Max amplitude (%) (± SD) [1, 6]: 5 (±3) % |
| CC(=O)O[C@H]1CC[C@@]2(C)C(=CC[C@@H]3[C@@H]2CC[C@]2(C)C(=O)CC[C@@H]32)C1 [Dehydroisoandosterone 3-acetate (DHEA), Dehydroisoandosterone 3-acetate] |  | 82 (±6) % |  |  |  | EC02 compared with reported maximum concentration in blood serum [1]: EC02 below the reported maximum concentration found in blood serum; EC50 [1, 4]: 0.593 µM; EC50 [1, 5]: 0.584 µM; Emax [1]: 77%; IC50 [2, 7]: 1.69 µM; IC50 [3]: 3.7 µM |
| C[C@]12C[C@H](O)[C@H]3[C@@H](CCC4=CC(=O)CC[C@@]43C)[C@@H]1CC[C@@H]2C(=O)CO [corticosterone] | 55 | 49 (±5) % | 2.94 | 6.1 |  |  |
| CC(=O)[C@@]1(O)CC[C@H]2[C@@H]3C[C@H](C)C4=CC(=O)C=C[C@]4(C)[C@@]3(F)[C@@H](O)C[C@@]21C [fluorometholone] | 42 | 29 (±12) % | 0.702 | 6.51 |  |  |
| CCCC1O[C@@H]2C[C@H]3[C@@H]4CCC5=CC(=O)C=C[C@]5(C)[C@H]4[C@@H](O)C[C@]3(C)[C@]2(C(=O)CO)O1 (some centres unmarked) [budesonide] | 7 | 3 (±8) % |  |  | > 100 |  |
| C[C@]12CC[C@@H](O)C[C@H]1CC[C@@H]1[C@@H]2CC[C@]2(C)C(=O)CC[C@@H]12 [3-alpha-hydroxy-5-beta-androstan-17-one] |  | 66 (±2) % | 0.915 | 1.52 |  | Max amplitude (%) (± SD) [1, 6]: 66 (±2) % |
| C[C@]12CCC(=O)C(O)=C1CC[C@@H]1[C@@H]2CC[C@]2(C)C(=O)CC[C@@H]12 [formestane] |  | 70 (±8) % |  |  |  | EC50 [1, 5]: 0.353 µM; Emax [1]: 71%; IC50 [2, 7]: 1.22 µM |
| CC#C[C@]1(O)CC[C@H]2[C@@H]3CCC4=CC(=O)CCC4=C3[C@@H](c3ccc(N(C)C)cc3)C[C@@]21C [mifepristone] |  |  | 13.5 | 11 |  | Emax [1]: 9%; Max P4 inhibition (%) (± SD) [2]: 25 (±25) % |
